From ChEMBL document CHEMBL5365468, “Discovery of a novel series of medium-sized cyclic enteropeptidase inhibitors” (Bioorg Med Chem, 2023)

Key:
[1] = biological target: T1, Enteropeptidase (Homo sapiens, UniProt P98073); test: Inhibition of human recombinant enteropeptidase using 5FAM-Abu-Gly-Asp-Asp-Asp-Lys-Ile-Val-Gly-Gly-Lys(CPQ2)-Lys-Lys-NH2 as substrate assessed as dissociation half life preincubated with compound for 2 hrs followed by substrate addition and measured every 2 mins by fluorescence based analysis
[2] = biological target: T1, Enteropeptidase; test: Inhibition of human recombinant enteropeptidase using 5FAM-Abu-Gly-Asp-Asp-Asp-Lys-Ile-Val-Gly-Gly-Lys(CPQ2)-Lys-Lys-NH2 as substrate incubated for 6 mins by fluorescence plate reader analysis
[3] = biological target: T1, Enteropeptidase; test: Inhibition of human recombinant enteropeptidase using 5FAM-Abu-Gly-Asp-Asp-Asp-Lys-Ile-Val-Gly-Gly-Lys(CPQ2)-Lys-Lys-NH2 as substrate incubated for 120 mins by fluorescence plate reader analysis
[4] = Stability of the compound at pH 1.2 assessed as drug decomposition at 10 ug/ml incubated for 24 hrs by HPLC analysis; assay type: physicochemical; details: buffer, at 10 µg/mL, read-out: Drug degradation
[5] = Stability of the compound at pH 6.8 assessed as drug decomposition at 10 ug/ml incubated for 24 hrs by HPLC analysis; assay type: physicochemical; details: buffer, at 10 µg/mL, read-out: Drug degradation
[6] = In vivo inhibition of enteropeptidase in D12079B diet-induced obese C57BL/6J mouse model assessed as fold increase in fecal protein output at 10 mg/kg, po measured overnight relative to N-({4-[(4-carbamimidamidobenzoyl)oxy]phenyl}acetyl)-L-aspartic acid hydrochloride; assay type: functional
[7] = Drug absorption in monkey intestine assessed as fraction of drug absorbed into portal vein at 1 mg/kg, po by LC-MS/MS analysis; assay type: ADME, organism-based, Macaca mulatta; details: rhesus monkey, in vivo
[8] = Drug absorption in rat intestine assessed as fraction of drug absorbed into portal vein at 10 mg/kg, po by LC-MS/MS analysis; assay type: ADME, organism-based; details: in vivo
[9] = Oral bioavailability in mouse assessed as ratio of dose normalized oral AUC to intravenous AUC at 10 mg/kg by LC-MS/MS analysis; assay type: ADME, organism-based; details: in vivo
[10] = Oral bioavailability in dog assessed as ratio of dose normalized oral AUC to intravenous AUC at 1 mg/kg by LC-MS/MS analysis; assay type: ADME, organism-based, Canis lupus familiaris; details: in vivo
[11] = Oral bioavailability in monkey assessed as ratio of dose normalized oral AUC to intravenous AUC at 1 mg/kg by LC-MS/MS analysis; assay type: ADME, organism-based, Macaca mulatta; details: rhesus monkey, in vivo
[12] = Drug absorption in mouse intestine assessed as fraction of drug absorbed into portal vein at 10 mg/kg, po by LC-MS/MS analysis; assay type: ADME, organism-based; details: in vivo
[13] = Drug absorption in dog intestine assessed as fraction of drug absorbed into portal vein at 1 mg/kg, po by LC-MS/MS analysis; assay type: ADME, organism-based, Canis lupus familiaris; details: in vivo
[14] = Oral bioavailability in rat assessed as ratio of dose normalized oral AUC to intravenous AUC at 10 mg/kg by LC-MS/MS analysis; assay type: ADME, organism-based; details: in vivo
[15] = Drug metabolism in Sprague-Dawley rat assessed as open-ring type hydrolyzed metabolite formation in plasma at 100 mg/kg, po by LC-MS/MS analysis; assay type: ADME, organism-based; details: in vivo
[16] = Inhibition of rat recombinant enteropeptidase catalytic domain (818 to 1057 residues) using 5FAM-Abu-Gly-Asp-Asp-Asp-Lys-Ile-Val-Gly-Gly-Lys(CPQ2)-Lys-Lys-NH2 as substrate incubated for 120 mins by fluorescence plate reader analysis

T1 sequence (P98073 2-784 limits assumed): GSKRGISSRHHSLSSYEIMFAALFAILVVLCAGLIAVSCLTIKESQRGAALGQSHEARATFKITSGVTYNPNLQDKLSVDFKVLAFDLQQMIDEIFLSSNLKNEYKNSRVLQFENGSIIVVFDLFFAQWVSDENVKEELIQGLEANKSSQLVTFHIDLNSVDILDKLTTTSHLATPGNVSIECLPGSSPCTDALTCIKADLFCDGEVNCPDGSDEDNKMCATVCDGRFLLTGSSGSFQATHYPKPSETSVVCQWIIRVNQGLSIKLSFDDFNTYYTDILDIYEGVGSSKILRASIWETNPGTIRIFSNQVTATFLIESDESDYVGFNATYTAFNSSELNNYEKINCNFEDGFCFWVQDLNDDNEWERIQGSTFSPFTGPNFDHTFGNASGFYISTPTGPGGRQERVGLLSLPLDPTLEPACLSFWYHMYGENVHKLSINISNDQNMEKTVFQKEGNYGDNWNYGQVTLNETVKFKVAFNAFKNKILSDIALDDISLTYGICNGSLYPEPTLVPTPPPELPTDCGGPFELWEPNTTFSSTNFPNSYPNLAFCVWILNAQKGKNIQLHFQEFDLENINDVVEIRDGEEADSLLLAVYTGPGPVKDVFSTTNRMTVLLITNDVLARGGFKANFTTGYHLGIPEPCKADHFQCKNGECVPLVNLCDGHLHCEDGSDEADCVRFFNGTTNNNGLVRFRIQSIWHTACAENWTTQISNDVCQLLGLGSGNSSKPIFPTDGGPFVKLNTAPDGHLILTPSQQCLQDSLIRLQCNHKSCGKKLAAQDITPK
T1 sequence (P98073 785-1019 limits assumed): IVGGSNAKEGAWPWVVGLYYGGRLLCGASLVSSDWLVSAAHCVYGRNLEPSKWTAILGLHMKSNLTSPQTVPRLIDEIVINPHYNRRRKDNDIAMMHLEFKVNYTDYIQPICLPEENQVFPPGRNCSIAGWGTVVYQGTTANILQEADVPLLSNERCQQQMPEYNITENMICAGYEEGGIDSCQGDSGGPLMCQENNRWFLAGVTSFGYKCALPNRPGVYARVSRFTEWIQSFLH

SMILES	T1/2 [1] [h]	IC50 [2] [nM]	IC50 [3] [nM]	fold change (FC) [6]	further results
Cc1ccc(C(=O)N[C@@H](CC(=O)O)C(=O)O)cc1OC(=O)c1ccc(NC(=N)N)cc1	–	> 3300	710	–	–
N=C(N)Nc1ccc2c(c1)CCCOc1c(cccc1C(=O)N[C@@H](CC(=O)O)C(=O)O)OC2=O	> 2	9.4	0.41	1.72	FaFg [7]: 0.3%; FaFg [8]: 1.2%; bioavailability [9]: 1.1%; bioavailability [10]: 2.8%; bioavailability [11]: 0.3%; FaFg [12]: 1.9%; FaFg [13]: 3.4%; bioavailability [14]: 1%; Drug metabolism [15]: Metabolite_Detected; IC50 [16]: 0.62 nM
N=C(N)Nc1ccc2c(c1)CCCCCc1c(cccc1C(=O)N[C@@H](CC(=O)O)C(=O)O)OC2=O	> 2	96	2.9	1.15	degraded at 24 h, 10 ug/ml [4]: 0.4%; degraded at 24 h, 10 ug/ml [5]: 0.6%
N=C(N)Nc1ccc2c(c1)CCCCCCc1c(cccc1C(=O)N[C@@H](CC(=O)O)C(=O)O)OC2=O	–	2500	81	–	–

Now from value to compound, other results behind:

T1/2 [1] [h]	IC50 [2] [nM]	IC50 [3] [nM]	SMILES	fold change (FC) [6]	further results
0.27	8.7	0.69	N=C(N)Nc1ccc2c(c1)OCCCc1c(cccc1C(=O)N[C@@H](CC(=O)O)C(=O)O)OC2=O	–	–
> 2	93	3.2	N=C(N)Nc1ccc2c(c1)CCCCc1c(cccc1C(=O)N[C@@H](CC(=O)O)C(=O)O)OC2=O	1.13	degraded at 24 h, 10 ug/ml [4]: 1.2%; degraded at 24 h, 10 ug/ml [5]: 3.4%
–	69	4.4	Cc1c(OC(=O)c2ccc(NC(=N)N)cc2)cccc1C(=O)N[C@@H](CC(=O)O)C(=O)O	–	–
–	430	22	N=C(N)Nc1ccc2c(c1)CCCc1c(cccc1C(=O)N[C@@H](CC(=O)O)C(=O)O)OC2=O	–	–
> 2	26	1.7	N=C(N)Nc1ccc2c(c1)CCCCOc1c(cccc1C(=O)N[C@@H](CC(=O)O)C(=O)O)OC2=O	–	–
